Measured values: the NIST ThermoML archive (doi:10.1016/j.jct.2013.02.001)
Several values for one entry are separate records, joined by “and”; a condition that tells them apart may be missing. Equal entries are not always repeated. Numbers after ± are expanded uncertainties.

Assay: molar heat capacity at constant pressure
Settings: 101.33 kPa, Quantum Design PPMS relaxation calorimeter

## O=P([O-])([O-])OP(=O)([O-])[O-].[Fe+2].[Fe+2] [iron(II) pyrophosphate]
1 K, Crystal 2
  molar heat capacity at constant pressure: 0.08666 ± 0.0091 J/K/mol
1.913 K, Crystal 2
  molar heat capacity at constant pressure: 0.1778 ± 0.018 J/K/mol
2 K, Crystal 2
  molar heat capacity at constant pressure: 0.1915 ± 0.02 J/K/mol
2.064 K, Crystal 2
  molar heat capacity at constant pressure: 0.1986 ± 0.02 J/K/mol
2.26 K, Crystal 2
  molar heat capacity at constant pressure: 0.2225 ± 0.022 J/K/mol
2.531 K, Crystal 2
  molar heat capacity at constant pressure: 0.2638 ± 0.027 J/K/mol
2.801 K, Crystal 2
  molar heat capacity at constant pressure: 0.3059 ± 0.031 J/K/mol
3 K, Crystal 2
  molar heat capacity at constant pressure: 0.3363 ± 0.035 J/K/mol
3.099 K, Crystal 2
  molar heat capacity at constant pressure: 0.357 ± 0.036 J/K/mol
3.44 K, Crystal 2
  molar heat capacity at constant pressure: 0.423 ± 0.043 J/K/mol
3.822 K, Crystal 2
  molar heat capacity at constant pressure: 0.5078 ± 0.051 J/K/mol
4 K, Crystal 2
  molar heat capacity at constant pressure: 0.5546 ± 0.057 J/K/mol
4.26 K, Crystal 2
  molar heat capacity at constant pressure: 0.6259 ± 0.063 J/K/mol
4.75 K, Crystal 2
  molar heat capacity at constant pressure: 0.7875 ± 0.079 J/K/mol
5 K, Crystal 2
  molar heat capacity at constant pressure: 0.8911 ± 0.091 J/K/mol
5.271 K, Crystal 2
  molar heat capacity at constant pressure: 1.009 ± 0.1 J/K/mol
5.851 K, Crystal 2
  molar heat capacity at constant pressure: 1.309 ± 0.13 J/K/mol
6 K, Crystal 2
  molar heat capacity at constant pressure: 1.402 ± 0.14 J/K/mol
6.516 K, Crystal 2
  molar heat capacity at constant pressure: 1.743 ± 0.17 J/K/mol
7 K, Crystal 2
  molar heat capacity at constant pressure: 2.14 ± 0.22 J/K/mol
7.28 K, Crystal 2
  molar heat capacity at constant pressure: 2.343 ± 0.23 J/K/mol
8 K, Crystal 2
  molar heat capacity at constant pressure: 3.105 ± 0.32 J/K/mol
8.038 K, Crystal 2
  molar heat capacity at constant pressure: 3.122 ± 0.31 J/K/mol
8.944 K, Crystal 2
  molar heat capacity at constant pressure: 4.246 ± 0.43 J/K/mol
9 K, Crystal 2
  molar heat capacity at constant pressure: 4.353 ± 0.44 J/K/mol
9.847 K, Crystal 2
  molar heat capacity at constant pressure: 5.612 ± 0.56 J/K/mol
10 K, Crystal 2
  molar heat capacity at constant pressure: 5.87 ± 0.14 J/K/mol
10.08 K, Crystal 2
  molar heat capacity at constant pressure: 5.991 ± 0.6 J/K/mol
10.35 K, Crystal 2
  molar heat capacity at constant pressure: 6.444 ± 0.65 J/K/mol
10.86 K, Crystal 2
  molar heat capacity at constant pressure: 7.341 ± 0.73 J/K/mol
11 K, Crystal 2
  molar heat capacity at constant pressure: 7.59 ± 0.19 J/K/mol
11.2 K, Crystal 2
  molar heat capacity at constant pressure: 7.958 ± 0.8 J/K/mol
11.38 K, Crystal 2
  molar heat capacity at constant pressure: 8.272 ± 0.83 J/K/mol
11.88 K, Crystal 2
  molar heat capacity at constant pressure: 9.198 ± 0.92 J/K/mol
12 K, Crystal 2
  molar heat capacity at constant pressure: 9.403 ± 0.23 J/K/mol
12.4 K, Crystal 2
  molar heat capacity at constant pressure: 10.13 ± 1 J/K/mol
12.41 K, Crystal 2
  molar heat capacity at constant pressure: 10.27 ± 1 J/K/mol
12.91 K, Crystal 2
  molar heat capacity at constant pressure: 11.04 ± 1.1 J/K/mol
13 K, Crystal 2
  molar heat capacity at constant pressure: 11.22 ± 0.27 J/K/mol
13.42 K, Crystal 2
  molar heat capacity at constant pressure: 11.97 ± 1.2 J/K/mol
13.81 K, Crystal 2
  molar heat capacity at constant pressure: 12.78 ± 1.3 J/K/mol
13.93 K, Crystal 2
  molar heat capacity at constant pressure: 12.96 ± 1.3 J/K/mol
14 K, Crystal 2
  molar heat capacity at constant pressure: 13.1 ± 0.32 J/K/mol
14.15 K, Crystal 2
  molar heat capacity at constant pressure: 13.36 ± 1.3 J/K/mol
14.44 K, Crystal 2
  molar heat capacity at constant pressure: 13.97 ± 1.4 J/K/mol
14.67 K, Crystal 2
  molar heat capacity at constant pressure: 14.41 ± 1.4 J/K/mol
14.95 K, Crystal 2
  molar heat capacity at constant pressure: 15.04 ± 1.5 J/K/mol
15 K, Crystal 2
  molar heat capacity at constant pressure: 15.16 ± 0.37 J/K/mol
15.19 K, Crystal 2
  molar heat capacity at constant pressure: 15.57 ± 1.6 J/K/mol
15.31 K, Crystal 2
  molar heat capacity at constant pressure: 15.94 ± 1.6 J/K/mol
15.46 K, Crystal 2
  molar heat capacity at constant pressure: 16.16 ± 1.6 J/K/mol
15.7 K, Crystal 2
  molar heat capacity at constant pressure: 16.68 ± 1.7 J/K/mol
15.96 K, Crystal 2
  molar heat capacity at constant pressure: 17.32 ± 1.7 J/K/mol
16 K, Crystal 2
  molar heat capacity at constant pressure: 17.48 ± 0.42 J/K/mol
16.21 K, Crystal 2
  molar heat capacity at constant pressure: 17.94 ± 1.8 J/K/mol
16.46 K, Crystal 2
  molar heat capacity at constant pressure: 18.55 ± 1.9 J/K/mol
16.73 K, Crystal 2
  molar heat capacity at constant pressure: 19.27 ± 1.9 J/K/mol
16.97 K, Crystal 2
  molar heat capacity at constant pressure: 19.88 ± 2 J/K/mol
17 K, Crystal 2
  molar heat capacity at constant pressure: 20.05 ± 0.48 J/K/mol
17.03 K, Crystal 2
  molar heat capacity at constant pressure: 20.07 ± 2 J/K/mol
17.21 K, Crystal 2
  molar heat capacity at constant pressure: 20.48 ± 2 J/K/mol
17.47 K, Crystal 2
  molar heat capacity at constant pressure: 21.15 ± 2.1 J/K/mol
17.72 K, Crystal 2
  molar heat capacity at constant pressure: 21.75 ± 2.2 J/K/mol
17.97 K, Crystal 2
  molar heat capacity at constant pressure: 22.35 ± 2.2 J/K/mol
18 K, Crystal 2
  molar heat capacity at constant pressure: 22.46 ± 0.54 J/K/mol
18.22 K, Crystal 2
  molar heat capacity at constant pressure: 22.9 ± 2.3 J/K/mol
18.45 K, Crystal 2
  molar heat capacity at constant pressure: 23.46 ± 2.3 J/K/mol
18.7 K, Crystal 2
  molar heat capacity at constant pressure: 23.76 ± 2.4 J/K/mol
18.86 K, Crystal 2
  molar heat capacity at constant pressure: 23.9 ± 2.4 J/K/mol
18.96 K, Crystal 1
  molar heat capacity at constant pressure: 23.94 ± 2.4 J/K/mol and 23.94 ± 0.57 J/K/mol
18.96 K, Crystal 2
  molar heat capacity at constant pressure: 23.94 ± 0.57 J/K/mol
19 K, Crystal 1
  molar heat capacity at constant pressure: 23.61 ± 0.57 J/K/mol
19.22 K, Crystal 1
  molar heat capacity at constant pressure: 23.87 ± 2.4 J/K/mol
19.47 K, Crystal 1
  molar heat capacity at constant pressure: 23.67 ± 2.4 J/K/mol
19.72 K, Crystal 1
  molar heat capacity at constant pressure: 23.25 ± 2.3 J/K/mol
19.96 K, Crystal 1
  molar heat capacity at constant pressure: 22.81 ± 2.3 J/K/mol
20 K, Crystal 1
  molar heat capacity at constant pressure: 22.76 ± 0.55 J/K/mol
20.21 K, Crystal 1
  molar heat capacity at constant pressure: 22.3 ± 2.2 J/K/mol
20.45 K, Crystal 1
  molar heat capacity at constant pressure: 21.81 ± 2.2 J/K/mol
20.7 K, Crystal 1
  molar heat capacity at constant pressure: 21.41 ± 2.1 J/K/mol
20.95 K, Crystal 1
  molar heat capacity at constant pressure: 21.05 ± 2.1 J/K/mol
21.21 K, Crystal 1
  molar heat capacity at constant pressure: 20.68 ± 2.1 J/K/mol
21.46 K, Crystal 1
  molar heat capacity at constant pressure: 20.31 ± 2 J/K/mol
21.71 K, Crystal 1
  molar heat capacity at constant pressure: 20.15 ± 2 J/K/mol
21.96 K, Crystal 1
  molar heat capacity at constant pressure: 20.02 ± 2 J/K/mol
22.21 K, Crystal 1
  molar heat capacity at constant pressure: 19.89 ± 0.4 J/K/mol
22.47 K, Crystal 1
  molar heat capacity at constant pressure: 19.76 ± 0.4 J/K/mol
22.74 K, Crystal 1
  molar heat capacity at constant pressure: 19.73 ± 0.4 J/K/mol
22.99 K, Crystal 1
  molar heat capacity at constant pressure: 19.67 ± 0.39 J/K/mol
23.23 K, Crystal 1
  molar heat capacity at constant pressure: 19.65 ± 0.39 J/K/mol
23.29 K, Crystal 1
  molar heat capacity at constant pressure: 19.66 ± 0.39 J/K/mol
23.48 K, Crystal 1
  molar heat capacity at constant pressure: 19.65 ± 0.39 J/K/mol
23.52 K, Crystal 1
  molar heat capacity at constant pressure: 19.74 ± 0.4 J/K/mol
23.7 K, Crystal 1
  molar heat capacity at constant pressure: 19.62 ± 0.39 J/K/mol
23.73 K, Crystal 1
  molar heat capacity at constant pressure: 19.62 ± 0.39 J/K/mol
23.9 K, Crystal 1
  molar heat capacity at constant pressure: 19.67 ± 0.39 J/K/mol
23.98 K, Crystal 1
  molar heat capacity at constant pressure: 19.66 ± 0.39 J/K/mol
24.1 K, Crystal 1
  molar heat capacity at constant pressure: 19.7 ± 0.39 J/K/mol
24.3 K, Crystal 1
  molar heat capacity at constant pressure: 19.72 ± 0.39 J/K/mol
24.47 K, Crystal 1
  molar heat capacity at constant pressure: 19.77 ± 0.4 J/K/mol
24.66 K, Crystal 1
  molar heat capacity at constant pressure: 19.78 ± 0.4 J/K/mol
24.86 K, Crystal 1
  molar heat capacity at constant pressure: 19.85 ± 0.4 J/K/mol
25 K, Crystal 1
  molar heat capacity at constant pressure: 19.89 ± 0.4 J/K/mol and 19.88 ± 0.48 J/K/mol
25.05 K, Crystal 1
  molar heat capacity at constant pressure: 19.91 ± 0.4 J/K/mol
25.25 K, Crystal 1
  molar heat capacity at constant pressure: 19.94 ± 0.4 J/K/mol
25.46 K, Crystal 1
  molar heat capacity at constant pressure: 19.99 ± 0.4 J/K/mol
25.48 K, Crystal 1
  molar heat capacity at constant pressure: 20.02 ± 0.4 J/K/mol
25.65 K, Crystal 1
  molar heat capacity at constant pressure: 20.06 ± 0.4 J/K/mol
25.84 K, Crystal 1
  molar heat capacity at constant pressure: 20.15 ± 0.4 J/K/mol
25.86 K, Crystal 1
  molar heat capacity at constant pressure: 20.19 ± 0.4 J/K/mol
25.98 K, Crystal 1
  molar heat capacity at constant pressure: 20.18 ± 0.4 J/K/mol
